The record followed here is patent US8906925B2, “Pyrido[4,3-B]indoles containing rigid moieties” (Medivation Technologies, Inc., priority 2008, dated 2014).

A word on the inhibition: it is the change of the read-out against control, counted positive when it falls.

Read-outs that look alike come from different tables or passages of the source.

The target in experiment [1] is T1, human recombinant serotonin (5-Hydroxytryptamine) 5-HT2A receptor (Homo sapiens, UniProt P28223).
T1 construct: expressed in transfected cells; host or cells: Chinese hamster ovary (CHO-K1) cells
Kind of experiment: Serotonin 5-HT2A radioligand binding ([3H]Ketanserin). The conditions noted are these: read-out: Inhibition of ligand binding, Serotonin 5-HT2A (percent inhibition of specific binding), compound at 1 μM. As for the experimental part:
Compounds of the invention were incubated with 0.5 nM [^3H]Ketanserin for 60 min. at 25° C. Non-specific binding was estimated in the presence of 1 μM Mianserin. Receptor proteins were filtered and washed, the filters were then counted to determine [^3H]Ketanserin specifically bound.

The target of experiment [2] is human recombinant serotonin (5-Hydroxytryptamine) 5-HT7 receptor (Homo sapiens, UniProt P34969). Briefly: Serotonin 5-HT7 radioligand binding ([3H]LSD). The conditions noted are these: compound at 1 μM; read-out: Inhibition of ligand binding, Serotonin 5-HT7 (percent inhibition of specific binding). From the text:
Receptor proteins were filtered and washed, the filters were then counted to determine [^3H]LSD specifically bound.

Experiment [3] deals with T2, human recombinant adrenergic α1D receptor (Homo sapiens, UniProt P25100).
T2 construct: expressed in transfected cells; host or cells: human embryonic kidney (HEK-293) cells
T2 sequence (P25100 1-572): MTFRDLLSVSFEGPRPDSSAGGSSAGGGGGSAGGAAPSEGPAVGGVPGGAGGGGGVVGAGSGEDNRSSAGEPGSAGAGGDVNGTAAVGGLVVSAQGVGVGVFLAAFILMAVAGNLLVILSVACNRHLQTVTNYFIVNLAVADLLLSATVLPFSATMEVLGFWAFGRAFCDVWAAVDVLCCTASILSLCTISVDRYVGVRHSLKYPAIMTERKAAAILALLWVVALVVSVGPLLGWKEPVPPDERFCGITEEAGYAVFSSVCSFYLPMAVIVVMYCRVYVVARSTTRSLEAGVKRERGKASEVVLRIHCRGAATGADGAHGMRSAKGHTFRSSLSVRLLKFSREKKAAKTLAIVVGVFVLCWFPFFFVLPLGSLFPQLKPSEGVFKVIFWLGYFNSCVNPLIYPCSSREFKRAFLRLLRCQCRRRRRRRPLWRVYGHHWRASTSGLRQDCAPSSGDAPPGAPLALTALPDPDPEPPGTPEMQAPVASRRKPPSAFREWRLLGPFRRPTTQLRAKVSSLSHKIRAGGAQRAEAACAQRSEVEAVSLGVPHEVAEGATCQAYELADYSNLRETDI
Briefly: Adrenergic α1D radioligand binding ([3H]Prozosin). As to the method: Compounds of invention were incubated with 0.6 nM [^3H]Prozosin for 60 min. at 25° C. Non-specific binding was estimated in the presence of 10 μM phentolamine. Receptor proteins were filtered and washed, the filters were then counted to determine [^3H]Prozosin specifically bound. Compounds were screened at 1 μM or lower, using 1% DMSO as vehicle. Biochemical assay results are presented as the percent inhibition of specific binding in Table 9.

Experiment [4] addresses T3, human recombinant serotonin (5-Hydroxytryptamine) 5-HT2C receptor (Homo sapiens, UniProt P28335).
T3 construct: expressed in transfected cells; host or cells: Chinese hamster ovary (CHO-K1) cells
T3 sequence (P28335 33-458): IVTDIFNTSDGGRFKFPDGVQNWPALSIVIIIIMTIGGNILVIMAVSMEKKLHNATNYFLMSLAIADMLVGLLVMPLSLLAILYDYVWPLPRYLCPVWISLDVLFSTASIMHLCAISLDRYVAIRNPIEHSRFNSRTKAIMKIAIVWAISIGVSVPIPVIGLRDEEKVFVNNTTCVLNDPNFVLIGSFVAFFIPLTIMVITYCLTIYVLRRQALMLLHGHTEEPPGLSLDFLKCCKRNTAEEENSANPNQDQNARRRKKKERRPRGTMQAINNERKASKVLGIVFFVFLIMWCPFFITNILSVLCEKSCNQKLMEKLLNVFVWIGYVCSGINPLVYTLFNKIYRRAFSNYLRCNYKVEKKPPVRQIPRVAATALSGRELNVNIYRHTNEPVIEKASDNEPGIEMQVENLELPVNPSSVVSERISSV
Briefly: Serotonin 5-HT2C radioligand binding ([3H]Mesulergine). Conditions: read-out: Inhibition of ligand binding, Serotonin 5-HT2C (percent inhibition of specific binding); for inhibition at 1 µM: compound at 1 μM. The essentials:
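Compounds tested at 1 μM or lower (1% DMSO vehicle) for displacement of 1 nM [3H]Mesulergine over 60 min at 25° C. Specific binding determined by filtration counting, with 1 μM Mianserin defining non-specific binding; values are percent inhibition.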

Experiment [5] concerns the target T4, human recombinant histamine H2 receptor (Homo sapiens, UniProt P25021).
T4 construct: expressed in transfected cells; host or cells: Chinese hamster ovary (CHO) K1 cells
Briefly: Histamine H2 radioligand binding ([125I]Aminopotentidine). The essentials:
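Receptor source: human recombinant H2 in CHO-K1 cells, assayed in 50 mM phosphate pH 7.4. Competition against 0.1 nM [125I]aminopotentidine, 120 min, 25 °C; 3 μM tiotidine sets nonspecific binding, filter-bound counts give specific binding.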

Where [6] appears, read: percent inhibition of specific binding, compound at 1 μM, read-out: Inhibition of ligand binding, Adrenergic α1D.
The mark [7] stands for this setting: read-out: Histamine Binding (1 μM) H2, percent inhibition of specific binding, 1 μM.

T1 sequence (P28223 whole entry): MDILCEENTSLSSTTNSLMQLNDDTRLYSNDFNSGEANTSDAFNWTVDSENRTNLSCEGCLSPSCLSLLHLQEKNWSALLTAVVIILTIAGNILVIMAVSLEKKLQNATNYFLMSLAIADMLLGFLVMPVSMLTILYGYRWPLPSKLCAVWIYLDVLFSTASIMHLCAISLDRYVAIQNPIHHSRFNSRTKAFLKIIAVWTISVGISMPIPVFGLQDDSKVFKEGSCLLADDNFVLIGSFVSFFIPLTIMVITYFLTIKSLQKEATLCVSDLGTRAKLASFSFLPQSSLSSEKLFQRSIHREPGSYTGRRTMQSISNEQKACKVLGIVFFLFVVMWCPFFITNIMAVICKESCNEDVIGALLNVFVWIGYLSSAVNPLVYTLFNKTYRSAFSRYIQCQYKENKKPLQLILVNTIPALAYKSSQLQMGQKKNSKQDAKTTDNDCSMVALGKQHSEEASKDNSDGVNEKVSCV
T4 sequence (P25021 whole entry): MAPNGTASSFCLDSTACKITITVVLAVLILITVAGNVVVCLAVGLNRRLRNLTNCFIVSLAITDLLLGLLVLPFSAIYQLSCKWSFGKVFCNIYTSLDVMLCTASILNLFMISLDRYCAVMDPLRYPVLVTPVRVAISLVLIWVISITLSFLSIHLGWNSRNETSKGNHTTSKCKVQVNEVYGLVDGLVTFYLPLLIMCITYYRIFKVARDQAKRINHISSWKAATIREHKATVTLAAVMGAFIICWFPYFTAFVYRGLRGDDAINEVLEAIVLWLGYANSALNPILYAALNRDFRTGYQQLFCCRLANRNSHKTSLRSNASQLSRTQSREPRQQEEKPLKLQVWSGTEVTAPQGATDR
Chain of human recombinant serotonin (5-Hydroxytryptamine) 5-HT7 receptor (P34969 whole entry): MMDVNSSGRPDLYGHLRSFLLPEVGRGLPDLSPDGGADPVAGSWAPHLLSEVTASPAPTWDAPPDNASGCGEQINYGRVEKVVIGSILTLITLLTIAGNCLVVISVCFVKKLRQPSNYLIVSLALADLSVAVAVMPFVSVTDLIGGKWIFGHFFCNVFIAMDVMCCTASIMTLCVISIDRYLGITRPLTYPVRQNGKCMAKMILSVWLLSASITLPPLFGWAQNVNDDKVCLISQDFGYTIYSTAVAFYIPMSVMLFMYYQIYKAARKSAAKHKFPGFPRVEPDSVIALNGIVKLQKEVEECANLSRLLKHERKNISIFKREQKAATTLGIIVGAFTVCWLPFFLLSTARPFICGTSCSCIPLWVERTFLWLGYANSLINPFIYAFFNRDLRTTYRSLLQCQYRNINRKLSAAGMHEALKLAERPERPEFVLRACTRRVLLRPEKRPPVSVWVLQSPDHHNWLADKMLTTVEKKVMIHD

As to `Cc1ccc(C(O)Cn2c3c(c4cc(C)ccc42)CN(C)CC3)cc1` (racemic) [Compound 43, racemic-2-(1,2,3,4-tetrahydro-2,8-dimethylpyrido[4,3-b]indol-5-yl)-1-p-tolylethanol], the inhibition at 1 µM is 100% in experiment [1], 98% in experiment [2], 87% in experiment [3] (setting [6]) and 96% in experiment [4]. Further, the inhibition at 0.1 µM in experiment [4] (compound at 0.1 μM) was 81%.
With `CN1CCc2c(c3cc(Cl)ccc3n2CC(O)c2cccnc2)C1` (stereo not shown) [Compound 56, 2-(8-chloro-1,2,3,4-tetrahydro-2-methylpyrido[4,3-b]indol-5-yl)-1-(pyridin-3-yl)ethanol], the inhibition at 1 µM in experiment [1] was 68%; in experiment [5] (setting [7]), 26%; in experiment [3] (setting [6]), 43%; in experiment [4], 38%.
The matching figures for `Cc1ccc(/C=C/Cn2c3c(c4cc(Cl)ccc42)CN(C)CC3)cn1` [Compound 125, 8-chloro-2,3,4,5-tetrahydro-2-methyl-5-((E)-3-(6-methylpyridin-3-yl)allyl)-1H-pyrido[4,3-b]indole]: 97%, 48%, 51% and 77%.
For `C/C(=C\n1c2c(c3cc(Cl)ccc31)CN(C)CC2)c1ccc(C)nc1` [Compound 89, (E)-8-chloro-2,3,4,5-tetrahydro-2-methyl-5-(2-(6-methylpyridin-3-yl)prop-1-enyl)-1H-pyrido[4,3-b]indole] the same measures were 101%, 91%, 87% and 98%.
The matching figures for `C=C(Cn1c2c(c3cc(Cl)ccc31)CN(C)CC2)c1ccc(C)nc1` [Compound 136, 8-chloro-2,3,4,5-tetrahydro-2-methyl-5-(2-(6-methylpyridin-3-yl)allyl)-1H-pyrido[4,3-b]indole]: 100%, 85%, 70% and 93%.
For `Cc1ccc2c(c1)c1c(n2CC(C)(O)c2ccc(F)cc2)CCN(C)C1` (stereo not shown) [Compound 55, 2-(4-fluorophenyl)-1-(1,2,3,4-tetrahydro-2,8-dimethylpyrido[4,3-b]indol-5-yl)propan-2-ol], the inhibition at 1 µM in experiment [1] was found to be 100%; in experiment [5] (setting [7]), 88%; in experiment [3] (setting [6]), 64%; in experiment [4] it was 93%.
For `Cc1ccc2c(c1)c1c(n2CC(C)(O)c2cccnc2)CCN(C)C1` (stereo not shown) [Compound 60, 1-(1,2,3,4-tetrahydro-2,8-dimethylpyrido[4,3-b]indol-5-yl)-2-(pyridin-3-yl)propan-2-ol] the same measures were 78%, 40%, 33% and 86%.
Turning to `Cc1ccc2c(c1)c1c(n2CC(O)c2cccnc2)CCN(C)C1` (stereo not shown) [Compound 54, 2-(1,2,3,4-tetrahydro-2,8-dimethylpyrido[4,3-b]indol-5-yl)-1-(pyridin-3-yl)ethanol], the inhibition at 1 µM in experiment [1] turned out to be 42%; in experiment [5] (setting [7]), 5%; in experiment [3] (setting [6]), 15%; in experiment [4], 22%.
`CN1CCc2c(c3cc(Cl)ccc3n2C#Cc2ccc(F)cc2)C1` [Compound No. 475, 8-chloro-5-((4-fluorophenyl)ethynyl)-2-methyl-2,3,4,5-tetrahydro-1H-pyrido[4,3-b]indole]: the inhibition at 1 µM in experiment [1] amounted to 99%; in experiment [5] (setting [7]) it was 91%; in experiment [3] (compound at 1 μM, read-out: Inhibition of ligand binding, Adrenergic α1D (percent inhibition of specific binding)) it was 91%; in experiment [4] it was 96%.
For `Cc1ccc2[nH]c3c(c2c1)CN(C)CC3` [Compound 3, 2,8-Dimethyl-2,3,4,5-tetrahydro-1H-pyrido[4,3-b]indole], the inhibition at 1 µM is 6% in experiment [5] (read-out: Histamine Binding (1 μM) H2, percent inhibition of specific binding); 42% in experiment [3] (read-out: Inhibition of ligand binding, Adrenergic α1D); 96% in experiment [4].
